Read-outs that look alike come from different tables or passages of the source. Non-standard residues stand in square brackets, D forms with d. Residues, ends and D or L forms follow the SMILES beside them. *: point of attachment. X1 = CC(C)C[C@@H](CN1CCC[N+]2=C1CCC2)N*; X2 = CC(C)C[C@@H](C[N+]1=C2CCCN2CCC1)N*; Pip = O=C(O)[C@@H]1CCCCN1; Iva = CC[C@](C)(N)C(=O)O; Aib = CC(C)(N)C(=O)O; βAla = NCCC(=O)O

Data set [1] deals with Toxoplasma gondii tachyzoites (RH88). Nature of the data set: microbe, parasite or virus in culture. The following applies: read-out: TgRH88 IC50 (mean ± SEM). The procedure:
For the initial fixed concentration screening and IC50 determination in T. gondii, we utilized a luciferase expressing RH88 strain to quantify the number of live, actively replicating parasites. To construct this strain, the Fluc and DHFR selection markers had been integrated into the UPRT locus through CRISPR/Cas9, rendering the strain pyrimethamine-resistant ([6]). Screening was performed using a pure compound library provided by the University of Oklahoma Natural Products Discovery Group, containing 683 compounds derived primarily from fungal secondary metabolites. For purposes of testing, HFFs were grown in 96-well microtiter plates in preparation. The media we used to grow cells was referred to a D10 media that was composed of Dulbecco's Modified Eagle Medium (Thermo Fisher; Cat # 11995073), 10% Fetal Bovine Serum (Sigma-Aldrich; Cat # 12306C), 1 × non-essential amino acids (100 ×; Thermo Fisher; Cat # 11140050), HEPES buffer (1M; Fisher Scientific; Cat # SH3023701) at 0.4M, and 10 mg/mL of gentamicin (Fisher Scientific; Cat # 15710072). Compounds were then diluted to 10 µM in 100 µL of fresh D10 media. Each plate utilized artemisinin and DMSO vehicle controls. To each well, 2,500 parasites per 100 µL of D10 media were added. Three technical replicates were then performed. After 48 hours, 160 µL of the D10 media was removed, and plates were subjected to freezing then thawing. Following this, 10 µL of the passive lysis buffer (Promega; Cat# E1910) was added and incubated at room temperature for 15 min. Finally, 100 µL of luciferase assay reagent (Promega; Cat# E1501) was added to each well, and luminescence was measured using a PHERAstar FSX plate reader (BMG Labtech, Germany).
(§1) For IC50 and cytotoxicity determination, we used 384 plates with confluent HFF cells. Compounds were serially diluted 3-fold with a starting concentration of 20 µM. Samples were further diluted by adding an equal volume of media containing 700 parasites. DMSO and […] of KAE609 were used as negative and positive controls, respectively. Assays were performed with a total of three technical replicates and two biological replicates. After incubation for 48 hours, 50 µL of media was removed, and plates were subjected to freezing and thawing. Following this, 10 µL of passive lysis buffer was added and plates were incubated for 15 min at room temperature. Finally, 30 µL of luciferase reagent was added, and the luminescence was measured immediately using a PHERAstar FSX. In parallel, cytotoxicity dose response was performed in the same fashion without the addition of parasites. Cell counting kit-8 reagent (GlpBio; Cat # GK10001) was added at a 1:10 dilution and incubated at 37°C, 5% CO2 for 1 hour. The absorbance was then measured at 450 nm using a PHERAstar FSX. The data management system CDD vault was used for curve fitting and IC50 determination.

The test system of data set [2] is human foreskin fibroblasts (HFFs). Nature of the data set: HFF cytotoxicity dose response (cell counting kit-8). The following applies: for IC50: read-out: HFF IC50 (mean ± SEM); for toxicity to HFFs: highest concentrations tested (20 µM). On the procedure: as §1, with “Samples” for “For IC50 and cytotoxicity determination, we used 384 plates with confluent HFF cells. Compounds were serially diluted 3-fold with a starting concentration of 20 µM. Samples”
In general terms: Tetrazolium dyes change colour on reduction, which living cells bring about.

For data set [3], the system named is Plasmodium falciparum (Dd2). The following applies: read-out: PfDd2 IC50, cited from earlier work.
A short description of data set [4]: HFF cytotoxicity dose response (cell counting kit-8). The following applies: human, confluent human foreskin fibroblast (HFF) cells. On the procedure:
as §1, with “Samples” for “For IC50 and cytotoxicity determination, we used 384 plates with confluent HFF cells. Compounds were serially diluted 3-fold with a starting concentration of 20 µM. Samples”

[5] abbreviates: luciferase expressing RH88 in HFF, 48 hours.
Where [6] appears, read: cytotoxicity, no parasites, 48 hours, CCK-8.
The mark [7] stands for this setting: mean of duplicate or triplicate experiments.

What is called IC50 is the concentration that inhibits the measured activity by half. As to `CN(C)c1ccc2nc3ccc(=[N+](C)C)cc-3sc2c1` [Methylene blue, reference compound], the IC50 in data set [1] (Toxoplasma gondii, 48 h) was 258 ± 0.95 nM; in data set [2] (Homo sapiens, Fibroblast, 48 h), greater than 20000 nM.
For `CC1=C[C@@H]2/C=C(\C)CC[C@H](O)[C@H](O)/C=C/C(=O)[C@]23C(=O)N[C@@H](CC(C)C)[C@@H]3[C@@H]1C` [compound 170081, Aspochalasin D], in that order: 1270 nM and 30300 nM.
In the case of `CC[C@](C)(NC(=O)[C@H](CC(C)C)NC(=O)[C@H](C)NC(=O)C(C)(C)NC(=O)[C@@H]1CCCCN1C(=O)C(C)(C)NC(=O)C(C)(C)NC(=O)CNC(=O)CCNC(=O)[C@H](CC(C)C)NC(=O)C(C)(C)NC(=O)[C@](C)(CC)NC(=O)[C@@H]1CCCCN1C(=O)C(C)(C)NC(=O)[C@@H]1CCCCN1C(C)=O)C(=O)N[C@@H](CC(C)C)CN1CCC[N+]2=C1CCC2` [compound 150004, Efrapeptin G] (Ac-[Pip][Aib][Pip][Iva][Aib]L[βAla]G[Aib][Aib][Pip][Aib]AL[Iva]-X1; N-terminus and C-terminus assumed), the IC50 in data set [1] (setting [5]) was 12.3 ± 2.3 nM; in data set [2] (setting [6]), greater than 20000 nM; in data set [3] (ref Lee et al. ([8])) it was 460 nM.
Regarding `CC[C@](C)(NC(=O)[C@H](CC(C)C)NC(=O)[C@H](C)NC(=O)C(C)(C)NC(=O)[C@@H]1CCCCN1C(=O)C(C)(C)NC(=O)C(C)(C)NC(=O)CNC(=O)CCNC(=O)[C@H](CC(C)C)NC(=O)C(C)(C)NC(=O)[C@](C)(CC)NC(=O)[C@@H]1CCCCN1C(=O)C(C)(C)NC(=O)[C@@H]1CCCCN1C(C)=O)C(=O)N[C@@H](CC(C)C)C[N+]1=C2CCCN2CCC1` [compound 150004, Efrapeptin G] (Ac-[Pip][Aib][Pip][Iva][Aib]L[βAla]G[Aib][Aib][Pip][Aib]AL[Iva]-X2), the “toxicity to HFFs” value in data set [2] is “no toxicity”.
For the compound “Alpha-cyclopiazonic acid [compound 170027]”, the values for the concentration for half-maximal inhibition (IC50) in data set [1] (setting [5]) and in data set [2] (setting [6]) were 1130 nM and greater than 40000 nM, respectively.
Consider `CCCCC[C@@H](O)C[C@@H](O)C[C@@H]1Cc2cc3cc(OC)c(-c4c(OC)cc5cc6c(c(O)c5c4O)C(=O)O[C@H](C[C@H](O)C[C@H](O)CCCCC)C6)c(O)c3c(O)c2C(=O)O1` [compound 150020, Dinapinone A], for which the IC50 in data set [1] (setting [5]) was determined as 3170 nM; in data set [2] (setting [6]) it was 6670 nM.
Consider `COC(=O)c1c(Sc2c(O)cc(OC)c(C(=O)c3c(O)cc(C)cc3O)c2C(=O)OC)c(O)cc(OC)c1C(=O)c1c(O)cc(C)cc1O` [compound 150052, Polluxochrin], for which the 50% inhibitory concentration (IC50) is 801 ± 163 nM in data set [1] (Toxoplasma gondii, 48 h) and greater than 60000 nM in data set [2] (Homo sapiens, Fibroblast, 48 h).
Take PF-1140 [compound 120159]: the IC50 was 3290 nM in data set [1] (setting [5]) and greater than 20000 nM in data set [2] (setting [6]).
On to `CC[C@](C)(NC(=O)[C@H](CC(C)C)NC(=O)[C@H](C)NC(=O)C(C)(C)NC(=O)[C@@H]1CCCCN1C(=O)C(C)(C)NC(=O)C(C)(C)NC(=O)CNC(=O)CCNC(=O)[C@H](CC(C)C)NC(=O)C(C)(C)NC(=O)C(C)(C)NC(=O)[C@@H]1CCCCN1C(=O)C(C)(C)NC(=O)[C@@H]1CCCCN1C(C)=O)C(=O)N[C@@H](CC(C)C)C[N+]1=C2CCCN2CCC1` [compound 150003, Efrapeptin F] (Ac-[Pip][Aib][Pip][Aib][Aib]L[βAla]G[Aib][Aib][Pip][Aib]AL[Iva]-X2), for which the “toxicity to HFFs” value in data set [2] is on record as “no toxicity”.
With `CN1C(=O)[C@]2(Cc3cn([C@]45C[C@@]67SS[C@@](CO)(C(=O)N6[C@H]4Nc4ccccc45)N(C)C7=O)c4ccccc34)SS[C@@]1(CO)C(=O)N2C` [compound 170066, Chetomin], the concentration for half-maximal inhibition (IC50) stood at 62.2 ± 3.75 nM in data set [1] (Toxoplasma gondii, 48 h) and 369 ± 72.6 nM in data set [2] (Homo sapiens, Fibroblast, 48 h).
With `C=C[C@H]1C[C@@H](C)C[C@@H](C)[C@@H]1c1c(O)ccn(O)c1=O` [compound 130034, Pyridoxatin], the results for the IC50 in data set [1] (setting [5]) and in data set [2] (setting [6]) were greater than 8560 nM and greater than 20000 nM, respectively.
As for `C[C@H]1Cc2c([nH]c3cc(Cl)c(F)cc23)[C@@]2(N1)C(=O)Nc1ccc(Cl)cc12` [KAE609, reference compound], the IC50 in data set [1] (Toxoplasma gondii, 48 h) is 440 ± 34.8 nM; in data set [2] (Homo sapiens, Fibroblast, 48 h) it was greater than 20000 nM.
As to `COC(=O)[C@@]12Oc3ccc(-c4ccc5c(c4O)C(O)C4=C(O)C[C@H](C)[C@@H](O)[C@]4(C(=O)OC)O5)c(O)c3C(=O)C1=C(O)C[C@H](C)[C@H]2O` (some centres unmarked) [compound 130002, Secalonic acid D], the IC50 in data set [1] (Toxoplasma gondii, 48 h) was 334 ± 103 nM; in data set [2] (Homo sapiens, Fibroblast, 48 h) it was 3730 nM; in data set [3] (setting [7]), 1300 nM.
For `C[C@H]1CCC/C=C/[C@@H]2C[C@H](O)C[C@H]2[C@H](O)/C=C/C(=O)O1` [compound 160010, Brefeldin A], the IC50 in data set [1] (Toxoplasma gondii, 48 h) came out at 243 ± 78.4 nM; in data set [2] (Homo sapiens, Fibroblast, 48 h), 6430 nM.
Regarding `C=C1Cc2ccc3[nH]c4c(c3c2[C@H]2[C@@H]1C[C@@H]2C(C)(C)O)C[C@@H]1CC[C@@]2(O)C3=C[C@@H](O)[C@@H](C(=C)C)O[C@H]3CC[C@]2(C)[C@@]41C` [compound 120253, Secopenitrem D], the IC50 was 14100 nM in data set [1] (setting [5]) and greater than 20000 nM in data set [2] (setting [6]).
Take `CC[C@](C)(NC(=O)[C@H](CC(C)C)NC(=O)[C@H](C)NC(=O)C(C)(C)NC(=O)[C@@H]1CCCCN1C(=O)C(C)(C)NC(=O)C(C)(C)NC(=O)CNC(=O)CCNC(=O)[C@H](CC(C)C)NC(=O)C(C)(C)NC(=O)C(C)(C)NC(=O)[C@@H]1CCCCN1C(=O)C(C)(C)NC(=O)[C@@H]1CCCCN1C(C)=O)C(=O)N[C@@H](CC(C)C)CN1CCC[N+]2=C1CCC2` [compound 150003, Efrapeptin F] (Ac-[Pip][Aib][Pip][Aib][Aib]L[βAla]G[Aib][Aib][Pip][Aib]AL[Iva]-X1; N-terminus and C-terminus assumed): the IC50 is 55.5 ± 11.8 nM in data set [1] (setting [5]), greater than 20000 nM in data set [2] (setting [6]) and 399 nM in data set [3] (ref Lee et al. ([8])).
Take Verticillin [compound 130038]: the IC50 is 79 ± 29.3 nM in data set [1] (setting [5]), 82.4 ± 41.8 nM in data set [2] (setting [6]) and 501 nM in data set [3] (setting [7]).
In the case of `CCC(=O)CCCCCC1NC(=O)C2CCCCN2C(=O)C(C(C)C)NC(=O)C(Cc2cn(OC)c3ccccc23)NC1=O` (centres unmarked) [compound 120251, Apicidin C], the IC50 in data set [1] (Toxoplasma gondii, 48 h) is 25.9 ± 10.2 nM; in data set [2] (Homo sapiens, Fibroblast, 48 h) it was greater than 20000 nM; in data set [3] (setting [7]), 236 nM.
In the case of `COc1c(C[C@@H](C)OC(=O)Oc2ccc(O)cc2)c2c3c(C[C@@H](C)OC(=O)c4ccccc4)c(OC)c(=O)c4c(O)cc(OC)c(c5c(OC)cc(O)c(c1=O)c52)c43` [compound 170068, Calphostin C], the IC50 in data set [1] (Toxoplasma gondii, 48 h) was 1140 nM; in data set [2] (Homo sapiens, Fibroblast, 48 h) it was greater than 20000 nM; in data set [3] (setting [7]), 410 nM.
For the compound `CC(O)[C@@]12SS[C@]3(C(=O)N1C)[C@@H](O)C1([C@@]45c6ccccc6N[C@@H]4N4C(=O)[C@]6(C(C)O)SS[C@]4(C(=O)N6C)[C@H]5O)c4ccccc4N[C@@H]1N3C2=O` (some centres unmarked) [compound 130016, Verticillin D], the IC50 came out at 36.2 ± 1.8 nM in data set [1] (setting [5]) and 943.2 ± 6.4 nM in data set [2] (setting [6]).
As for `COC(=O)C1=CC(O)C(O)C(O)C1N1CC(O)C(OC(C)=O)C1Cc1ccc(OC)cc1` (centres unmarked) [compound 150029], the IC50 in data set [1] (Toxoplasma gondii, 48 h) amounted to 585 ± 14.6 nM; in data set [2] (Homo sapiens, Fibroblast, 48 h) it was 28500 nM. In addition, in data set [4], the IC50 at 48 h worked out at 28500 ± 2400 nM.
With `COC(=O)C12Oc3c(c(O)cc4c3C3C=CC5(C4)C(=O)c4cc(C)cc(O)c4C(O)=C5C3=O)C(O)=C1C(=O)CCC2O` (centres unmarked) [compound 130143, Xanthoquinodin B2], the IC50 was 131 ± 36.5 nM in data set [1] (Toxoplasma gondii, 48 h); greater than 20000 nM in data set [2] (Homo sapiens, Fibroblast, 48 h); 1010 nM in data set [3] (setting [7]).
